Like-named read-outs stand apart in the source and are kept apart here.
Key:
[1] = tested on: T. cruzi (Tulahuen strain) intracellular amastigotes; test: intracellular amastigote growth inhibition in NIH-3T3 fibroblasts; format: cell-based, Trypanosoma cruzi; settings: for changes in the percent activity: at 50 μM, highest concentration tested
[2] = biological target: T1, T. cruzi glucokinase (TcGlcK) (Trypanosoma cruzi, UniProt Q4E4E1); format: biochemical; settings: for LE (ligand efficiency): LE = −RTlnKi/N, N non-hydrogen atoms, TcGlcK inhibition; for TcGlcK selectivity ratio: Ki (HsHxKIV) / Ki (TcGlcK); for fold weaker TcGlcK inhibition compared to CBZ-GlcN: ratio of Ki values
[3] = tested on: T. cruzi (Tulahuen strain) intracellular amastigotes; settings: read-out: T. cruzi IC50, reported value, cited from earlier work
T. cruzi parasites = settings: acute stage; cited from earlier work
[4] = tested on: T. cruzi hexokinase (TcHxK); settings: read-out: KM for D-glucose catalysis, TcHxK; cited from earlier work
[5] = biological target: T2, Homo sapiens hexokinase IV (HsHxKIV) (Homo sapiens, UniProt P35557); settings: read-out: KM for D-glucose, non-His-tagged wt-HsHxKIV; cited from earlier work
T2 sequence (P35557 12-457 limits assumed): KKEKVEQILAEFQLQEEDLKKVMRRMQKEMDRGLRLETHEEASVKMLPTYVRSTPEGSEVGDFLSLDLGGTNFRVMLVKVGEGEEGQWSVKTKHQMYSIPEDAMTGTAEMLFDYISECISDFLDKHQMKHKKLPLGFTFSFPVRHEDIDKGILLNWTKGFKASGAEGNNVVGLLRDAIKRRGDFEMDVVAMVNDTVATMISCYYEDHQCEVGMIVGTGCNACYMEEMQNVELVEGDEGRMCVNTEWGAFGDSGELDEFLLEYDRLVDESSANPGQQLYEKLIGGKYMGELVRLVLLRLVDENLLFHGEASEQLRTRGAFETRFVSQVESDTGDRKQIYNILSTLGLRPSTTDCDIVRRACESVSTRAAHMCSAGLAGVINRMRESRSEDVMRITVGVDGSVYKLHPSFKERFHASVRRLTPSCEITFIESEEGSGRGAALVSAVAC

[6] = biological target: T2, Homo sapiens hexokinase IV (HsHxKIV); format: biochemical; settings: read-out: KM for D-glucose, His6-HsHxKIV; truncated construct; 22 °C, pH 7.6
[7] = biological target: T1, T. cruzi glucokinase (TcGlcK); settings: read-out: KM for D-glucose, TcGlcK; room temperature, pH 8.5; cited from earlier work
TbHxK = settings: read-out: Ki, TbHxK; cited from earlier work
[8] = ratio of amastigote IC50 values

SMILES: O=C(N[C@H]1C(O)O[C@H](CO)[C@@H](O)[C@@H]1O)c1ccccc1 (stereo partly drawn) [BENZ-GlcN, 2-benzamido-2-deoxy-D-glucopyranose]
- fold weaker inhibition effect compared to amphotericin B [1, 8]: 34 fold
- fold weaker inhibition effect compared to benznidazole [1, 8]: 14 fold
- LE (ligand efficiency) [2]: 0.30 kcal/mol

SMILES: O=C(Cn1ccnc1[N+](=O)[O-])NCc1ccccc1 [Benznidazole, N-Benzyl-2-nitro-1H-imidazole-1-acetamide]
- IC50 ([3]; ref 50): 1.43 µM
- IC50 ([3]; ref 51): 1.5 µM
- parasitological cures (T. cruzi parasites): ≤ 80%

SMILES: O=C(N[C@H]1C(O)O[C@H](CO)[C@@H](O)[C@@H]1O)OCc1ccccc1 (stereo partly drawn) [CBZ-GlcN, 2-N-carboxybenzyl-2-deoxy-D-glucosamine]
- TcGlcK selectivity ratio [2]: 245
- LE (ligand efficiency) [2]: 0.38 kcal/mol

SMILES: OC[C@H]1OC(O)[C@H](O)[C@@H](O)[C@@H]1O (stereo partly drawn) [D-glucose]
- Km [4]: 60 µM
- Km [5]: 6000 µM
- Km [6]: 41800 ± 8700 µM
- Km [7]: 1000 µM
- Km ([2]; read-out: KM for D-glucose, His6-TcGlcK, room temperature (22 °C), pH 7.6): 948 ± 295 µM

SMILES: O=C(N[C@H]1C(O)O[C@H](CO)[C@@H](O)[C@@H]1O)OCC1=Cc2ccccc2S1(=O)=O (stereo partly drawn) [DBT-GlcN, 2-[[1,1-dioxobenzo[b]thiophen-2-yl]methyloxocarbonylamino]-2-deoxy-D-glucosamine]
- changes in the percent activity [1]: not significant
- LE (ligand efficiency) [2]: 0.27 kcal/mol
- fold weaker TcGlcK inhibition compared to CBZ-GlcN [2]: 6 fold

SMILES: O=C(CCc1ccc(O)cc1)N[C@H]1C(O)O[C@H](CO)[C@@H](O)[C@@H]1O (stereo partly drawn) [HPOP-GlcN, 2-[[3-(4-hydroxyphenyl)-1-oxopropyl]amino]-2-deoxy-D-glucosamine]
- changes in the percent activity [1]: not significant
- TcGlcK selectivity ratio [2]: 186
- LE (ligand efficiency) [2]: 0.35 kcal/mol
- fold weaker TcGlcK inhibition compared to CBZ-GlcN [2]: 1.8 fold

SMILES: O=C(N[C@H]1C(O)O[C@H](CO)[C@@H](O)[C@@H]1O)c1cccc(Br)c1 (stereo partly drawn) [m-bromo-benzoyl glucosamine]
- Ki (TbHxK): 2.8 µM
